Reference: the supplement of paper PMC10307832

Assays:
Experiment in all cases: relative viability (nuclei count vs DMSO), 5 days (fraction); higher = more cells survive
[1] = test system: A-427
Summary of the method: (§1)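 Five library-drug doses in √10 steps were combined with a fixed anchor-drug dose, or a single drug was given alone, by pin tool to lung cancer cell lines in 1536-well plates the day after seeding. Nuclei were stained and counted after 5 days. Relative viability is the nuclei count in treated wells over that in vehicle wells, taken as the median of duplicate plates.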

[2] = test system: ABC-1
Summary of the method: as §1

[3] = test system: BEN
Summary of the method: as §1

[4] = test system: CAL-12T
Summary of the method: as §1

[5] = test system: HARA
Summary of the method: as §1

[6] = test system: LCLC-103H
Summary of the method: as §1

[7] = test system: LOU-NH91
Summary of the method: as §1

[8] = test system: NCI-H1651
Summary of the method: as §1

[9] = test system: NCI-H1666
Summary of the method: as §1

[10] = test system: NCI-H1734
Summary of the method: as §1

[11] = test system: NCI-H1944
Summary of the method: as §1

[12] = test system: NCI-H1975
Summary of the method: as §1

[13] = test system: NCI-H2085
Summary of the method: as §1

[14] = test system: NCI-H2126
Summary of the method: as §1

[15] = test system: NCI-H460
Summary of the method: as §1

[16] = test system: NCI-H520
Summary of the method: as §1

[17] = test system: NCI-H596
Summary of the method: as §1

[18] = test system: NCI-H647
Summary of the method: as §1

[19] = test system: NCI-H661
Summary of the method: as §1

[20] = test system: NCI-H727
Summary of the method: as §1

[21] = test system: NCI-H838
Summary of the method: as §1

[22] = test system: RERF-LC-KJ
Summary of the method: as §1

Structure (SMILES): Cc1csc(=NC2CCCCC2)n1/N=C/c1ccc(O)c(O)c1O [MIM1] + C[C@]1(O)C[C@@H](c2nc(-c3ccc4ccc(-c5ccccc5)nc4c3)c3c(N)nccn32)C1 [Linsitinib] (partner 1 µM)
- relative viability ([1]; first compound 0.2 µM): 1.09
- relative viability ([1]; first compound 0.6325 µM): 1.14
- relative viability ([1]; first compound 2 µM): 1.11
- relative viability ([1]; first compound 6.325 µM): 1.07
- relative viability ([1]; first compound 20 µM): 0.505
- relative viability ([2]; first compound 0.2 µM): 0.769
- relative viability ([2]; first compound 0.6325 µM): 1.14
- relative viability ([2]; first compound 2 µM): 0.651
- relative viability ([2]; first compound 6.325 µM): 0.388
- relative viability ([2]; first compound 20 µM): 0.24
- relative viability ([3]; first compound 0.2 µM): 0.888
- relative viability ([3]; first compound 0.6325 µM): 0.877
- relative viability ([3]; first compound 2 µM): 0.981
- relative viability ([3]; first compound 6.325 µM): 0.826
- relative viability ([3]; first compound 20 µM): 0.42
- relative viability ([4]; first compound 0.2 µM): 0.803
- relative viability ([4]; first compound 0.6325 µM): 0.677
- relative viability ([4]; first compound 2 µM): 0.695
- relative viability ([4]; first compound 6.325 µM): 0.634
- relative viability ([4]; first compound 20 µM): 0.225
- relative viability ([5]; first compound 0.2 µM): 0.9
- relative viability ([5]; first compound 0.6325 µM): 0.926
- relative viability ([5]; first compound 2 µM): 0.909
- relative viability ([5]; first compound 6.325 µM): 0.92
- relative viability ([5]; first compound 20 µM): 0.187
- relative viability ([6]; first compound 0.2 µM): 0.994
- relative viability ([6]; first compound 0.6325 µM): 1.08
- relative viability ([6]; first compound 2 µM): 1.22
- relative viability ([6]; first compound 6.325 µM): 0.999
- relative viability ([6]; first compound 20 µM): 1.05
- relative viability ([7]; first compound 0.2 µM): 0.882
- relative viability ([7]; first compound 0.6325 µM): 0.978
- relative viability ([7]; first compound 2 µM): 0.728
- relative viability ([7]; first compound 6.325 µM): 0.851
- relative viability ([7]; first compound 20 µM): 0.592
- relative viability ([8]; first compound 0.2 µM): 0.925
- relative viability ([8]; first compound 0.6325 µM): 0.993
- relative viability ([8]; first compound 2 µM): 1
- relative viability ([8]; first compound 6.325 µM): 0.825
- relative viability ([8]; first compound 20 µM): 0.797
- relative viability ([9]; first compound 0.2 µM): 0.791
- relative viability ([9]; first compound 0.6325 µM): 0.753
- relative viability ([9]; first compound 2 µM): 0.732
- relative viability ([9]; first compound 6.325 µM): 0.606
- relative viability ([9]; first compound 20 µM): 0.526
- relative viability ([10]; first compound 0.2 µM): 0.829
- relative viability ([10]; first compound 0.6325 µM): 1.01
- relative viability ([10]; first compound 2 µM): 0.853
- relative viability ([10]; first compound 6.325 µM): 0.754
- relative viability ([10]; first compound 20 µM): 0.422
- relative viability ([11]; first compound 0.2 µM): 1.12
- relative viability ([11]; first compound 0.6325 µM): 1.13
- relative viability ([11]; first compound 2 µM): 0.923
- relative viability ([11]; first compound 6.325 µM): 1
- relative viability ([11]; first compound 20 µM): 1.46
- relative viability ([12]; first compound 0.2 µM): 0.869
- relative viability ([12]; first compound 0.6325 µM): 1.12
- relative viability ([12]; first compound 2 µM): 0.796
- relative viability ([12]; first compound 6.325 µM): 0.525
- relative viability ([12]; first compound 20 µM): 0.546
- relative viability ([13]; first compound 0.2 µM): 1.04
- relative viability ([13]; first compound 0.6325 µM): 0.912
- relative viability ([13]; first compound 2 µM): 0.971
- relative viability ([13]; first compound 6.325 µM): 0.815
- relative viability ([13]; first compound 20 µM): 0.934
- relative viability ([14]; first compound 0.2 µM): 0.715
- relative viability ([14]; first compound 0.6325 µM): 0.695
- relative viability ([14]; first compound 2 µM): 0.744
- relative viability ([14]; first compound 6.325 µM): 0.707
- relative viability ([14]; first compound 20 µM): 0.702
- relative viability ([15]; first compound 0.2 µM): 0.791
- relative viability ([15]; first compound 0.6325 µM): 0.783
- relative viability ([15]; first compound 2 µM): 0.582
- relative viability ([15]; first compound 6.325 µM): 0.287
- relative viability ([15]; first compound 20 µM): 0.022
- relative viability ([16]; first compound 0.2 µM): 0.983
- relative viability ([16]; first compound 0.6325 µM): 1.1
- relative viability ([16]; first compound 2 µM): 0.921
- relative viability ([16]; first compound 6.325 µM): 0.64
- relative viability ([16]; first compound 20 µM): 0.5
- relative viability ([17]; first compound 0.2 µM): 0.989
- relative viability ([17]; first compound 0.6325 µM): 0.989
- relative viability ([17]; first compound 2 µM): 0.991
- relative viability ([17]; first compound 6.325 µM): 0.857
- relative viability ([17]; first compound 20 µM): 0.871
- relative viability ([18]; first compound 0.2 µM): 1.28
- relative viability ([18]; first compound 0.6325 µM): 1.07
- relative viability ([18]; first compound 2 µM): 1.32
- relative viability ([18]; first compound 6.325 µM): 0.807
- relative viability ([18]; first compound 20 µM): 0.868
- relative viability ([19]; first compound 0.2 µM): 0.575
- relative viability ([19]; first compound 0.6325 µM): 0.737
- relative viability ([19]; first compound 2 µM): 0.547
- relative viability ([19]; first compound 6.325 µM): 0.449
- relative viability ([19]; first compound 20 µM): 0.255
- relative viability ([20]; first compound 0.2 µM): 0.311
- relative viability ([20]; first compound 0.6325 µM): 0.284
- relative viability ([20]; first compound 2 µM): 0.276
- relative viability ([20]; first compound 6.325 µM): 0.278
- relative viability ([20]; first compound 20 µM): 0.266
- relative viability ([21]; first compound 0.2 µM): 0.887
- relative viability ([21]; first compound 0.6325 µM): 1.1
- relative viability ([21]; first compound 2 µM): 0.851
- relative viability ([21]; first compound 6.325 µM): 0.765
- relative viability ([21]; first compound 20 µM): 0.464
- relative viability ([22]; first compound 0.2 µM): 0.81
- relative viability ([22]; first compound 0.6325 µM): 0.866
- relative viability ([22]; first compound 2 µM): 0.773
- relative viability ([22]; first compound 6.325 µM): 0.473
- relative viability ([22]; first compound 20 µM): 0.287
